Source: patent publication US5547960A (Mayo Foundation for Medical Education and Research, priority 1994, dated 1996)
Read-outs that look alike come from different tables or passages of the source.

How the values were obtained:
AChE [1] = conditions: relative to (±)-huperzine A; U.S. Pat. No. 4,929,731; cited from earlier work
squirrel monkeys = conditions: G. P. Vincent et al., 1987; cited from earlier work
myasthenia gravis = conditions: 128 patients suffering from myasthenia gravis; Y. S. Cheng, 1986; cited from earlier work
mice = conditions: G. P. Vincent et al., 1987; cited from earlier work
FBS AChE = biological target: T1, FBS AChE (Bos taurus, UniProt P23795); test: Inhibition of AChE (dissociation constant Ki, procedure of Y. Ashani et al.); format: biochemical
T1 construct: FBS AChE; from tissue; host or cells: fetal bovine serum (FBS read as this abbreviation)
T1 sequence (P23795 31-613): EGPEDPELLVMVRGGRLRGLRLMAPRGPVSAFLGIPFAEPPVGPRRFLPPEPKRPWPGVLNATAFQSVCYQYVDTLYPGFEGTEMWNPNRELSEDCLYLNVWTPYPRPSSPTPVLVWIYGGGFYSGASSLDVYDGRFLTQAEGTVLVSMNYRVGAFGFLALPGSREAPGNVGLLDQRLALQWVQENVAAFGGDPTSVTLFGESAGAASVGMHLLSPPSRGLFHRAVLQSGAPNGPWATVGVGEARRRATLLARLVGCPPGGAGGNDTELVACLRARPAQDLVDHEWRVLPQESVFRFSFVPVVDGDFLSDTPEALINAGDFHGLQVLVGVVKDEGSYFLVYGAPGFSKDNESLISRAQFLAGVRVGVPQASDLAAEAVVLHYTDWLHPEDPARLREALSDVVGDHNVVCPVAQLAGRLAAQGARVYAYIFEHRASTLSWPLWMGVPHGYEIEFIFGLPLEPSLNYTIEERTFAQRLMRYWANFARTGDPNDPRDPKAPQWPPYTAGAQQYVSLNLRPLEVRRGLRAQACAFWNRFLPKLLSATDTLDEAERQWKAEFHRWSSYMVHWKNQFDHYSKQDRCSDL
From the text: *Dissociation constant (Ki) for inhibition of AChE determined

[2] = tested on: acetylcholinesterase (ACHE); conditions: cited from earlier work
AChE [3] = conditions: 0.65 mg/kg i.m., cited from earlier work
Alzheimer's disease = conditions: K. L. Davis, NIA meeting, Jan. 8-10, 1990; cited from earlier work
[4] = procedure of Y. Ashani et al., Molecular Pharmacol., 45, 555 (1994), read-out: FBS AChE Ki, dissociation constant for inhibition of AChE

With `CC=C1C2C=C(C)CC1(CN)c1ccc(=O)[nH]c1C2` (stereo not shown) as the molecule, how does the “times less potent than (±)-huperzine A as an inhibitor of AChE” value (AChE [1]) read?
The value was “about 166 times”.

Which “cognition enhancement in squirrel monkeys” value (squirrel monkeys) does the source give for `CC=C1C2C=C(C)CC1(N)c1ccc(=O)[nH]c1C2` (single isomer, unassigned) [huperzine A] here?
Its value is “effective cognition enhancer”.

And the “cases in which clinical manifestations of myasthenia gravis are controlled” value (myasthenia gravis)?
Its value is 99%.

And the “cognition enhancement in mice” value (mice)?
The value was “effective cognition enhancer”.

With `C=CCC1c2[nH]c(=O)ccc2C2(N)CC(C)=CC1/C2=C\C` (stereo not shown) [Compound 8a, (11E)-10-Allyl-5-amino-11-ethylidene-5,6,9,10-tetrahydro-7-methyl-5,9-methanocycloocta[b]pyridin-5(1H)-one] as the molecule, how does the Ki (FBS AChE; [4]) read?
The Ki was 275 µM.

Which Ki (FBS AChE; [4]) does the source give for `C/C=C1\C2C=C(C)CC1(N)c1ccc(=O)[nH]c1C2C` (stereo not shown) [Compound 8b, (11E)-5-Amino-11-ethylidene-5,6,9,10-tetrahydro-7,10-dimethyl-5,9-methanocycloocta[b]pyridin-2(1H)-one] here?
Its Ki is 0.008 ± 0.002 µM.

For `C/C=C1\C2C=C(C)CC1(N)c1ccc(=O)[nH]c1C2CC` (stereo not shown) [Compound 8c, (11E)-5-Amino-10-ethyl-11-ethylidene-5,6,9,10-tetrahydro-7-methyl-5,9-methanocycloocta[b]pyridin-2(1H)-one], which Ki (FBS AChE) is on record?
The Ki was 2.04 µM.

With `C/C=C1\C2C=C(C)CC1(N)c1ccc(=O)[nH]c1C2CCC` (stereo not shown) [Compound 8d, (11E)-5-Amino-11-ethylidene-5,6,9,10-tetrahydro-7-methyl-10-propyl-5,9-methanocycloocta[b]pyridin-2(1H)-one] as the molecule, how does the Ki (FBS AChE; [4]) read?
The Ki was 207 µM.

For `C/C=C1\C2C=C(C)CC1(N)c1ccc(=O)[nH]c1C2CCCC` (stereo not shown) [Compound 8e, (11E)-5-Amino-10-butyl-11-ethylidene-5,6,9,10-tetrahydro-7-methyl-5,9-methanocycloocta[b]pyridin-2(1H)-one], which Ki (FBS AChE; [4]) is on record?
Its Ki is 192 µM.

For `CC1=CC2Cc3[nH]c(=O)ccc3C3(C1)NCCCC23` (stereo not shown) [huperzine B], which “usefulness as ACHE inhibitors relative to THA and physostigmine” value [2] is on record?
Its value is “appear superior to THA and physostigmine”.

Which “maximal duration of AChE inhibitory action” value (AChE [3]; X. C. Tang et al., 1989) does the source give for `CNC(=O)Oc1ccc2c(c1)[C@]1(C)CCN(C)[C@@H]1N2C` [physostigmine] here?
Its value is no more than 60 min.

What about the side effects (AChE [3]) of the same molecule?
The side effects was “considerable side effects”.

And the cognitive improvement (Alzheimer's disease)?
Its cognitive improvement is “modest cognitive improvement”.
